According to publication PMC10002828, “FRET assay for live-cell high-throughput screening of the cardiac SERCA pump yields multiple classes of small-molecule allosteric modulators” (Research Square, 2023):
Structures can show the parent of a compound that is named as a salt. Where two headings read alike, the source gives them in different places. Blank lines part the entries; values can stand above or below the compound they belong to.

Assays:
SERCA2a [1] = target: T1, SERCA2a (Sus scrofa, UniProt P11607); assay: Fluo-4 oxalate-supported Ca2+-transport assay in pig cardiac SR vesicles; type: biochemical; conditions: for coupling ratio (CR), VMAX (Ca2+-transport) / VMAX (Ca2+-ATPase): at VMAX, control 0.66; for Ca2+-transport increase at VMID (Δ): midpoint Ca2+; for Ca2+-transport increase at VMID (Δ) / C10, Ca2+-transport at VMID: pCa 6.2; for Ca2+-transport change at VMAX (Δ, increase positive): saturating Ca2+
T1 construct: SERCA2a in native SR preparations; from tissue; host or cells: porcine left ventricular tissue (cardiac SR vesicles)
Description: (§1) Cardiac SR vesicles were isolated from fresh porcine left ventricular tissue using differential centrifugation of the homogenized tissue as previously described. The SR vesicles were flash-frozen and stored at −80°C until needed.
Ca^2+-transport assays were performed with similar porcine SR samples as in the Ca^2+-ATPase assays described above. The compound effect on the Ca^2+-transport activity of SERCA2a was determined using an oxalate-supported assay in which the change in fluorescence in a Ca-sensitive dye, Fluor-4, was determined as previously described. A buffered solution containing 50 mM MOPS (pH 7.0), 100 mM KCl, 30 mg/mL sucrose, 1 mM EGTA, 10 mM potassium oxalate, 2 μM Fluo-4, 30 μg/mL porcine cardiac SR vesicles, CaCl2 calculated to reach the free [Ca^2+] (pCa 8.0, 6.2, and 5.4), and compound (0.048 to 50μM) was dispensed into 384-well black walled, transparent bottomed plates (Greiner Bio-One) containing the tested small molecule and incubated at 22°C for 20 minutes while covered and protected from light. To start the reaction, MgATP was added to a final concentration of 5 mM, and the decrease in 485-nm excited fluorescence of Fluo-4 was monitored at 520 nm for 15 min using a FLIPR Tetra (Molecular Devices, San Jose, CA).
(§2) SERCA2a ATPase (or Ca-transport) activity at pCa 8.0 was subtracted from pCa 5.4 and pCa 6.2 values. The % effect ATPase (or Ca-transport transport) activity was normalized to the DMSO only (or 2CS in the absence of compound), and then were plotted against [Ca], and the curves were fitted using the Hill function, where V is the initial ATPase rate (or fluorescence rate), VMAX is the ATPase (or Ca^2+-transport) at saturating [Ca^2+], and EC50 or pKCa, or VM!D is the apparent Ca^2+ dissociation constant as described previously ATPase (or Ca^2+-transport) at (Midpoint Ca^2+)[44].

SERCA2a [2] = target: T1, SERCA2a; assay: NADH-linked enzyme-coupled Ca2+-ATPase assay in pig cardiac SR vesicles; type: biochemical; conditions: for functional category (Ca2+-ATPase and Ca2+-transport, VMAX and VMID): based on both Ca2+-ATPase and Ca2+-transport assays; for Ca2+-ATPase increase at VMID (ΔVMID): midpoint Ca2+; for Ca2+-ATPase increase at VMAX (ΔVMAX): saturating Ca2+
Description: as §1
Functional assays were performed using porcine cardiac SR vesicles. An enzyme-coupled, NADH-linked ATPase assay was used to measure SERCA ATPase activity in 384-well microplates. Each well contained 50 mM MOPS (pH 7.0), 100 mM KCl, 1 mM EGTA, 0.2 mM NADH, 1 mM phosphoenol pyruvate, 10 IU/mL of pyruvate kinase, 10 IU/mL of lactate dehydrogenase, 7 μM of the calcium ionophore A23187 (Sigma), and CaCl2 was added to set free [Ca^2+] to three different concentrations. The Ca^2+-ATPase were measured at VMAX (saturating, pCa 5.4), VM!D (subsaturating, midpoint, pCa 6.2), and basal (non-activating, pCa 8.0) [Ca^2+]. 10 μg/mL of SR vesicle, calcium, compound (0.048 to 50 μM), and assay mix were incubated for 20 min at room temperature before measurement of functional assays with each of the 18 hit compounds, because a shorter incubation time than the FRET live-cell assays achieved optimal responses. The assay was started upon the addition of MgATP at a final concentration of 5 mM (total volume to 80 μL), and absorbance was read in a SpectraMax Plus microplate spectrophotometer from Molecular Devices (Sunnyvale, CA) at 340nm.
as §2

[3] = target: T2, human two-color SERCA2a (2CS) biosensor (Homo sapiens, UniProt P16615); assay: FLT/FRET concentration-response of two-color SERCA2a (2CS) biosensor in live HEK293 cells; type: cell-based
T2 construct: expressed in transfected cells
Description: FRET CRC assay plates (0.78–100 μM compound range) with at least ten different compound concentrations were made by adding the appropriate volume of compound or DMSO into black 384 well plates (Greiner Bio-One) using a Mosquito HV (SPTLabTech, United Kingdom). Subsequent ATPase and Ca^2+-transport CRC assay plates (0–50 μM compound range) with repurchased compounds were made in a similar manner using with the Echo 550 (Beckman Coulter) using either 384 well transparent plates (Greiner Bio-One) or black-walled plates with transparent bottoms (Greiner Bio-One), respectively.
On each day of screening, cells were harvested, washed three times with PBS, and centrifuged at 300g for 5min. Cells were filtered using a 70μm cell strainer and diluted to 1–2 × 10^6 cells/mL. Cell concentration and viability were assessed using the Cell countess (Invitrogen) and trypan blue assay. During assays, cells were constantly and gently stirred using a magnetic stir bar at room temperature, keeping the cells in suspension and evenly distributed to avoid clumping. Cells were dispensed at 5μL or 50μL per well into assay plates (dispensed into 40 assay plates, each containing 1536 wells) pre-plated with either compound or DMSO using a Multdrop Combi liquid dispenser (Thermo Fisher Scientific, Pittsburg, PA) and sealed until needed. […] The FRET HTS screen was performed over two days with a custom HTS fluorescence lifetime plate reader (FLT-PR) and spectral plate reader (SUPR) provided by Photonic Pharma LLC (Minneapolis, MN)[18]. […]
A detailed description of the high-throughput fluorescence lifetime plate reader (FLT-PR) and spectral unmixing plate reader (SUPR), manufactured by Fluorescence Innovations Inc and provided by Photonic Pharma, LLC was described previously[18],[21]. Briefly, for lifetime measurement with the FLT-PR, the observed donor-fluorescence waveform, F (t) was fit by a convolution of the measured instrument response function (IRF) and a single-exponential decay to obtain the lifetime (τ) of the donor fluorophore[57] in the absence (τD) and presence (τDA) of the acceptor as described in Eq. (1): 1 F(t)=Ae^(−t/τ) FRET efficiency (E) was determined as the fractional decrease of donor FLT in the absence and in the presence of acceptor as in Eq. (2): 2 E=1−τDA/τD E was determined in the presence and absence of compound and normalized relative to E of the DMSO control. For spectral detection with the SUPR, the observed fluorescence emission spectrum F(λ) was fit by least-squares minimization of a linear combination of component spectra for donor (D), acceptor (A), cellular autofluorescence (C) and water Raman (W) as described previously. […]

SERCA [4] = conditions: cited from earlier work
[5] = set-up: method as in PMID 21878191; conditions: human usage; cited from earlier work
SERCA [6] = tested on: SERCA; set-up: method as in PMID 32397211; conditions: assay not named; read-out: EC50 (affinity); cited from earlier work
[7] = 2CS biosensor, live HEK293 cells, CRC 0.78–100 μM compound, read-out: FRET EC50

T1 sequence (P11607 1-997 isoform P11607-2): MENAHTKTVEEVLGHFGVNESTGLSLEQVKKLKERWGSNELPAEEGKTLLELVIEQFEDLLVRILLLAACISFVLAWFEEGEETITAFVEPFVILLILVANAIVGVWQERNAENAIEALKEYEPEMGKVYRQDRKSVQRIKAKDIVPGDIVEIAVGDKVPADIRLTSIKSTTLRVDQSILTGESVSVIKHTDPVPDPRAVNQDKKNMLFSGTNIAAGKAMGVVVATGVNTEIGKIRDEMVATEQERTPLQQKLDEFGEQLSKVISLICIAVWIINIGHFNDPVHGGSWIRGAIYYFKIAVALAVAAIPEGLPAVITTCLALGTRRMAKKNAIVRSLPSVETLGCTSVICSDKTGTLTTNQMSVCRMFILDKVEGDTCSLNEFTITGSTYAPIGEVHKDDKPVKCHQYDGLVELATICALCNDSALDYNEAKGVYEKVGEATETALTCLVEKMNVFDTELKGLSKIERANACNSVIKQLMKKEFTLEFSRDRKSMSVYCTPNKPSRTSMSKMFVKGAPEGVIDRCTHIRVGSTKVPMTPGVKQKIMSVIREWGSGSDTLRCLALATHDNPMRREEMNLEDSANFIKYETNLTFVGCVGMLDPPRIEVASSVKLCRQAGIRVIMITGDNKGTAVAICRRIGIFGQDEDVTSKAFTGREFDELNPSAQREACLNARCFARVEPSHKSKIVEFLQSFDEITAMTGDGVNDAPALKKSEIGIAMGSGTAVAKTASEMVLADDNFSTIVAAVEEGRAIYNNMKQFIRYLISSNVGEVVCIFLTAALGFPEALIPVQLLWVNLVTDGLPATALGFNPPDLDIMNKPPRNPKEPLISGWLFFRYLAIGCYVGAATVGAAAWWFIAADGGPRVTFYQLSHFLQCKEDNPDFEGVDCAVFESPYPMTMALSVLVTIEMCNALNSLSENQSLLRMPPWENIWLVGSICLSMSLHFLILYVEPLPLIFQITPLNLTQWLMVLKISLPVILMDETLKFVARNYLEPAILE
T2 sequence (P16615 1-997 isoform P16615-2): as the sequence (P11607 1-997 isoform P11607-2) above, with K371R, K403N, P538S, M570L, N576H, E667D, S713A, T865S, V889I, L963V counted along it

coupling ratio (CR), VMAX (Ca2+-transport) / VMAX (Ca2+-ATPase) (SERCA2a [1]): 0.74 | Ca2+-transport increase at VMID (Δ) (SERCA2a [1]): 19% | C10, Ca2+-transport at VMAX (SERCA2a [1]; pCa 5.4): 14 µM | C10, Ca2+-transport at VMID (SERCA2a [1]): 21 µM | Ca2+-transport change at VMAX (Δ, increase positive) (SERCA2a [1]; pCa 5.4): 24% | Ca2+-ATPase increase at VMID (ΔVMID) (SERCA2a [2]; pCa 6.2): 7% | C10 (compound concentration that changes function by 10%), Ca2+-ATPase at VMAX (SERCA2a [2]; pCa 5.4): 25 µM | C10, Ca2+-ATPase at VMID (SERCA2a [2]; pCa 6.2): 25 µM | Ca2+-ATPase increase at VMAX (ΔVMAX) (SERCA2a [2]; pCa 5.4): 14% | EC50 [3, 7]: 0.3 µM
SMILES: CCn1nc(C)c(CN2CCCC(Nc3ccc(C(C)C)cc3)C2)c1C (stereo not drawn) [Compound 7]
functional category (Ca2+-ATPase and Ca2+-transport, VMAX and VMID) (SERCA2a [2]): activates both Ca^2+-ATPase and Ca^2+-transport

Ca2+-transport inhibition (SERCA2a [1]): completely inhibited | Ca2+-ATPase inhibition at VMAX (SERCA2a [2]; pCa 5.4): 93% | Ca2+-ATPase inhibition at VMID (SERCA2a [2]; pCa 6.2): 90% | EC50 ([3]; assay not given, probably FRET EC50 of Table 1, read-out: EC50 (affinity), compared with thapsigargin): 3.8 µM
SMILES: OCC1(Cc2ccccc2F)CCCN(Cc2cc3c(cc2Cl)OCO3)C1 (stereo not drawn) [Compound 12]

coupling ratio (CR), VMAX (Ca2+-transport) / VMAX (Ca2+-ATPase) (SERCA2a [1]): 0.48 | Ca2+-transport increase at VMID (Δ) (SERCA2a [1]): 17% | C10, Ca2+-transport at VMAX (SERCA2a [1]; pCa 5.4): 15 µM | Ca2+-transport inhibition at VMAX (SERCA2a [1]; pCa 5.4): 21% | C10, Ca2+-transport at VMID (SERCA2a [1]): 4 µM | Ca2+-ATPase increase at VMID (ΔVMID) (SERCA2a [2]; pCa 6.2): 30% | C10 (compound concentration that changes function by 10%), Ca2+-ATPase at VMAX (SERCA2a [2]; pCa 5.4): 9.7 µM | EC50 (SERCA2a [2]; pCa 5.4, read-out: EC50, Ca2+-ATPase at VMAX): 11 µM | C10, Ca2+-ATPase at VMID (SERCA2a [2]; pCa 6.2): 8.7 µM | EC50 (SERCA2a [2]; pCa 6.2, read-out: EC50, Ca2+-ATPase at VMID): 11 µM | EC50 ([3]; 2CS biosensor, normalized FRET E, read-out: FRET half maximal effect (EC50), Figure 6 legend): 7.1 ± 0.2 µM
SMILES: O=C(c1ccc(-c2ccc(O)cc2)nc1)N1CCC(CCc2ccccc2)CC1 [Compound 6]
functional category (Ca2+-ATPase and Ca2+-transport, VMAX and VMID) (SERCA2a [2]): activates Ca^2+-ATPase with divergent effects on Ca^2+-transport

SMILES: CCCCN(CC)c1nc(C)nc2c1c(C)cn2-c1c(C)cc(C)cc1C [CP-154526]
effect on SERCA (SERCA [4]): increases the apparent Ca^2+ affinity of SERC2a

SMILES: Cc1ccc2cccc(NC(=O)c3ccc(OC(C)C)cc3)c2n1 [CDN1163]
effect on SERCA (SERCA [4]): stimulates Ca^2+ transport

coupling ratio (CR), VMAX (Ca2+-transport) / VMAX (Ca2+-ATPase) (SERCA2a [1]): 0.4 | Ca2+-transport increase at VMID (Δ) (SERCA2a [1]): 7% | C10, Ca2+-transport at VMAX (SERCA2a [1]; pCa 5.4): 25 µM | Ca2+-transport change at VMAX (Δ, increase positive) (SERCA2a [1]; pCa 5.4): 10% | Ca2+-ATPase increase at VMID (ΔVMID) (SERCA2a [2]; pCa 6.2): 31% | C10, Ca2+-ATPase at VMAX (SERCA2a [2]; pCa 5.4): 4.3 µM | C10, Ca2+-ATPase at VMID (SERCA2a [2]; pCa 6.2): 7.8 µM | Ca2+-ATPase increase at VMAX (ΔVMAX) (SERCA2a [2]; pCa 5.4): 49% | EC50 [3, 7]: 4.9 µM
SMILES: COc1ccc(C(=O)C2CCCN(Cc3nc(-c4ccc(F)cc4)cs3)C2)c(OC)c1 (stereo not drawn) [Compound 8]
functional category (Ca2+-ATPase and Ca2+-transport, VMAX and VMID) (SERCA2a [2]): activates both Ca^2+-ATPase and Ca^2+-transport

SMILES: C[C@]12CCC(=NOCCN)C[C@@H]1C(=O)C[C@@H]1[C@@H]2CC[C@]2(C)C(=O)CC[C@@H]12 [istaroxime, (E,Z)-3-((2-aminoethoxy)imino) androstane-6,17-dione hydrochloride)]
clearance rate [5]: high clearance rate | gastrointestinal absorption [5]: poor gastrointestinal absorption | metabolic transformation [5]: extensive metabolic transformation | effect on SERCA (SERCA [4]): stimulates SERCA activity

SMILES: O=C(c1cc(O)c(O)c([N+](=O)[O-])c1)c1ccccc1F [Ro 41–0960]
effect on SERCA (SERCA [4]): increases SERCA maximal activity in high Ca^2+

SMILES: C/C=C(/C)C(=O)O[C@H]1C(C)=C2[C@H]([C@@H]1OC(=O)CCCCCCC)[C@@](C)(OC(C)=O)C[C@H](OC(=O)CCC)[C@@]1(O)[C@H]2OC(=O)[C@@]1(C)O [thapsigargin]
EC50 (SERCA [6]): ~0.0075 µM
